Measurements: patent US20220187282A1, “CARDIOMYOCYTE PROLIFERATION” (The Council of the Queensland Institute of Medical Research, priority 2019, published 2022)
Like-named read-outs stand apart in the source and are kept apart here.

Tests used:
Type in all cases: biochemical
kinases [1] = target: kinases (Homo sapiens, UniProt P06493)
kinases [2] = target: kinases (Homo sapiens, UniProt Q15208); conditions: STK38 FRET-Lantha SP; Test Conc(μM) 1
kinases [3] = target: kinases (Homo sapiens, UniProt P11362); conditions: FGFR1 *Mn* FRET-Z-Lyte SP; Test Conc(μM):ATP Conc(μM) 1:25
kinases [4] = target: kinases (Homo sapiens, UniProt Q8NE63); conditions: HIPK4 FRET-Z-Lyte SP; Test Conc(μM):ATP Conc(μM) 1:50
kinases [5] = target: kinases (Homo sapiens, UniProt P49674); conditions: CSNK1E (CK1 epsilon) Z-Lyte SP; Test Conc(μM):ATP Conc(μM) 1:5
kinases [6] = target: kinases (Homo sapiens, UniProt Q8TD19); conditions: NEK9 *Mn* FRET-Z-Lyte SP; Test Conc(μM):ATP Conc(μM) 1:100
kinases [7] = target: kinases (Homo sapiens, UniProt Q15759); conditions: MAPK11 (p38 beta) Z-Lyte SP; Test Conc(μM):ATP Conc(μM) 1:50
kinases (Homo sapiens, UniProt Q15759), sequence (Q15759 whole entry): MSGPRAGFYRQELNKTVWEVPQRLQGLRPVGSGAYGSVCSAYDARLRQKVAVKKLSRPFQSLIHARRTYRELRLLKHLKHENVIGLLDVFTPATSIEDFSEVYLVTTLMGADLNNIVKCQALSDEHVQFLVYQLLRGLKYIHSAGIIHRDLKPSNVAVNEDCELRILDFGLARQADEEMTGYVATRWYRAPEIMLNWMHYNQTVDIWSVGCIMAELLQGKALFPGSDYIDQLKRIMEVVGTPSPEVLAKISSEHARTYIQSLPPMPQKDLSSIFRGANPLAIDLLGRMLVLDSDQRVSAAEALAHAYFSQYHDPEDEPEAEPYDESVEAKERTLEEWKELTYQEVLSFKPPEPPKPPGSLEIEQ

kinases [8] = target: kinases (Homo sapiens, UniProt P07948); conditions: LYN A Hu Phos FRET-Z-Lyte SP; Test Conc(μM):ATP Conc(μM) 1:25
kinases [9] = target: kinases (Homo sapiens, UniProt Q96GX5); conditions: MASTL FRET-Lantha SP; Test Conc(μM) 1
kinases (Homo sapiens, UniProt Q96GX5), sequence (Q96GX5 whole entry): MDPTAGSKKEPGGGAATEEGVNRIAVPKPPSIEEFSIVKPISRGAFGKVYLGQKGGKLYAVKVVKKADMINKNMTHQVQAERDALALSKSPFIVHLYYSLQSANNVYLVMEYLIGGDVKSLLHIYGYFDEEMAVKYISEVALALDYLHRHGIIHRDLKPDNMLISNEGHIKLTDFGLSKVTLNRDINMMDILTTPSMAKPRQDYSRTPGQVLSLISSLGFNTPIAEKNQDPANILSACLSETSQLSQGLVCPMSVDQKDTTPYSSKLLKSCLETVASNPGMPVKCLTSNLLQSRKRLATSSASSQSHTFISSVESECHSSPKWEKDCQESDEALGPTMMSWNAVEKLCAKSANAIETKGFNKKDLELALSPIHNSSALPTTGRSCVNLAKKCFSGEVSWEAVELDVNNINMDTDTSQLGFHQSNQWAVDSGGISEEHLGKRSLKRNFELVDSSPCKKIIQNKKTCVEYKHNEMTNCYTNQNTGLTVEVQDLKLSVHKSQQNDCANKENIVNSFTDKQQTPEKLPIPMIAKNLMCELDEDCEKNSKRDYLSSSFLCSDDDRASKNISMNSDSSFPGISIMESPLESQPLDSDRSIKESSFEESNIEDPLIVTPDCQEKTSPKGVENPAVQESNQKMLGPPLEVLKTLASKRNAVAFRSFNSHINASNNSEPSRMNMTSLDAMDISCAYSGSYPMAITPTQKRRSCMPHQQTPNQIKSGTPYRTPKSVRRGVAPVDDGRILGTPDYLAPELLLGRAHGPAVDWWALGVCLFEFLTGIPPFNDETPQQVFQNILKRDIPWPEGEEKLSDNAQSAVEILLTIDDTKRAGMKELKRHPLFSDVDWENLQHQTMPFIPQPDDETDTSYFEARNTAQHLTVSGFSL

kinases [10] = target: kinases (Homo sapiens, UniProt Q6DT37); conditions: CDC42 BPG FRET-Z-Lyte SP; Test Conc(μM):ATP Conc(μM) 1:5
kinases [11] = target: kinases (Homo sapiens, UniProt P15056)
kinases (Homo sapiens, UniProt P15056), sequence (P15056 whole entry): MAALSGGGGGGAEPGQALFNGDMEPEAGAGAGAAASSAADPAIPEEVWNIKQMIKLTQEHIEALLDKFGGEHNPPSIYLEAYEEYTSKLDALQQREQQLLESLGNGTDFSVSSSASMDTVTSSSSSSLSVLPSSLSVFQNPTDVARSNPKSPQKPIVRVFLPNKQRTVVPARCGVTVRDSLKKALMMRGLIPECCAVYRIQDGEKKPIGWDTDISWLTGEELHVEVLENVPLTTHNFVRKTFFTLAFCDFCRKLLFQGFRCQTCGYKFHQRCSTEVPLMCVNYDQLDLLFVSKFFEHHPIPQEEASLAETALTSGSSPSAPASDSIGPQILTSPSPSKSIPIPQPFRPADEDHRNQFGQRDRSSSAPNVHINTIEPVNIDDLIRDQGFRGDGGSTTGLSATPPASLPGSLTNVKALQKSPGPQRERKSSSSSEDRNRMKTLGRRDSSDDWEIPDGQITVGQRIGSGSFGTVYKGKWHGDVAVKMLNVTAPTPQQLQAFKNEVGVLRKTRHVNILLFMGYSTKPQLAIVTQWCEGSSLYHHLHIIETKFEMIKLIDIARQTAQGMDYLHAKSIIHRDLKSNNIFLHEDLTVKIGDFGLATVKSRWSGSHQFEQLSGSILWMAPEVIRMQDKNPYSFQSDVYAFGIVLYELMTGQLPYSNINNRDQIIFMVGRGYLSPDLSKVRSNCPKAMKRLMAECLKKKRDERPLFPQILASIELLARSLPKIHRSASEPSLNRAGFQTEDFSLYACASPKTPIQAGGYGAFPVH

kinases [12] = target: T1, kinases (Homo sapiens, UniProt P52564)
T1 sequence (P52564 1-334): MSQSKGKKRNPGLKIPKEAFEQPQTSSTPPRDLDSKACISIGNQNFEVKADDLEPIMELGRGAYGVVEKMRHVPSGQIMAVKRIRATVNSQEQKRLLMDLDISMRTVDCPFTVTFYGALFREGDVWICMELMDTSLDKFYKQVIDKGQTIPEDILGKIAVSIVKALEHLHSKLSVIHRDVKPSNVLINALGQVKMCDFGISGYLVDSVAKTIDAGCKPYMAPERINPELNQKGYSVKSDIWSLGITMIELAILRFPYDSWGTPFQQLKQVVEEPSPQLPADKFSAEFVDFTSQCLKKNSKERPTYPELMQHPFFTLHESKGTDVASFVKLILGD

kinases [13] = target: kinases (Homo sapiens, UniProt O60331); conditions: Test Conc(μM):ATP Conc(μM) 1:10
kinases (Homo sapiens, UniProt O60331), sequence (O60331 whole entry): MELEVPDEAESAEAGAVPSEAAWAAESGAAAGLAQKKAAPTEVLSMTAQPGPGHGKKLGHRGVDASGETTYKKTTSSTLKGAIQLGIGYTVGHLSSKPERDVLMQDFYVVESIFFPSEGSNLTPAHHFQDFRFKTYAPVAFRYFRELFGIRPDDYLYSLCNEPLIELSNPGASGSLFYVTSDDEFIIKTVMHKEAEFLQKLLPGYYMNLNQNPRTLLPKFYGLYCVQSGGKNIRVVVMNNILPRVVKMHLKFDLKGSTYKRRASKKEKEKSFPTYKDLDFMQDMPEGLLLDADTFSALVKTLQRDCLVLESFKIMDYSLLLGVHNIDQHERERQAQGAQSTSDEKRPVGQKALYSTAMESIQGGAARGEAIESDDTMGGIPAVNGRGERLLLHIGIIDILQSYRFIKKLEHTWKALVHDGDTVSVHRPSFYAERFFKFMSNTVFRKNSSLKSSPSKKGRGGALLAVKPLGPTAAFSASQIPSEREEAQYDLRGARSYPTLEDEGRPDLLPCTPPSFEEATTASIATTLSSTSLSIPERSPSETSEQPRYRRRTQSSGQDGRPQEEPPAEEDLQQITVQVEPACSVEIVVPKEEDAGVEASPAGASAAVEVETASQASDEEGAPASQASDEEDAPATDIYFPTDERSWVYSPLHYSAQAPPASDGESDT

kinases [14] = target: kinases (Homo sapiens, UniProt Q02156); conditions: PRKCE (PKC epsilon) Z-Lyte SP; Test Conc(μM):ATP Conc(μM) 1:25
kinases [15] = target: kinases (Homo sapiens, UniProt P51957); conditions: NEK4 FRET-Z-Lyte SP; Test Conc(μM):ATP Conc(μM) 1:50
kinases [16] = target: kinases (Homo sapiens, UniProt Q9Y463); conditions: DYRK1B FRET-Z-Lyte SP; Test Conc(μM):ATP Conc(μM) 1:75
kinases [17] = target: kinases (Homo sapiens, UniProt P09769); conditions: FGR FRET-Z-Lyte SP; Test Conc(μM):ATP Conc(μM) 1:10
kinases [18] = target: kinases (Homo sapiens, UniProt P54753); conditions: EPHB3 FRET-Z-Lyte SP; Test Conc(μM):ATP Conc(μM) 1:75
kinases [19] = target: kinases (Homo sapiens, UniProt Q9Y5S2); conditions: CDC42 BPB (MRCKB) Z-Lyte SP; Test Conc(μM):ATP Conc(μM) 1:5
kinases [20] = target: kinases (Homo sapiens, UniProt Q13627); conditions: DYRK1A FRET-Z-Lyte SP; Test Conc(μM):ATP Conc(μM) 1:100
kinases [21] = target: kinases (Homo sapiens, UniProt O60674)
kinases (Homo sapiens, UniProt O60674), sequence (O60674 whole entry): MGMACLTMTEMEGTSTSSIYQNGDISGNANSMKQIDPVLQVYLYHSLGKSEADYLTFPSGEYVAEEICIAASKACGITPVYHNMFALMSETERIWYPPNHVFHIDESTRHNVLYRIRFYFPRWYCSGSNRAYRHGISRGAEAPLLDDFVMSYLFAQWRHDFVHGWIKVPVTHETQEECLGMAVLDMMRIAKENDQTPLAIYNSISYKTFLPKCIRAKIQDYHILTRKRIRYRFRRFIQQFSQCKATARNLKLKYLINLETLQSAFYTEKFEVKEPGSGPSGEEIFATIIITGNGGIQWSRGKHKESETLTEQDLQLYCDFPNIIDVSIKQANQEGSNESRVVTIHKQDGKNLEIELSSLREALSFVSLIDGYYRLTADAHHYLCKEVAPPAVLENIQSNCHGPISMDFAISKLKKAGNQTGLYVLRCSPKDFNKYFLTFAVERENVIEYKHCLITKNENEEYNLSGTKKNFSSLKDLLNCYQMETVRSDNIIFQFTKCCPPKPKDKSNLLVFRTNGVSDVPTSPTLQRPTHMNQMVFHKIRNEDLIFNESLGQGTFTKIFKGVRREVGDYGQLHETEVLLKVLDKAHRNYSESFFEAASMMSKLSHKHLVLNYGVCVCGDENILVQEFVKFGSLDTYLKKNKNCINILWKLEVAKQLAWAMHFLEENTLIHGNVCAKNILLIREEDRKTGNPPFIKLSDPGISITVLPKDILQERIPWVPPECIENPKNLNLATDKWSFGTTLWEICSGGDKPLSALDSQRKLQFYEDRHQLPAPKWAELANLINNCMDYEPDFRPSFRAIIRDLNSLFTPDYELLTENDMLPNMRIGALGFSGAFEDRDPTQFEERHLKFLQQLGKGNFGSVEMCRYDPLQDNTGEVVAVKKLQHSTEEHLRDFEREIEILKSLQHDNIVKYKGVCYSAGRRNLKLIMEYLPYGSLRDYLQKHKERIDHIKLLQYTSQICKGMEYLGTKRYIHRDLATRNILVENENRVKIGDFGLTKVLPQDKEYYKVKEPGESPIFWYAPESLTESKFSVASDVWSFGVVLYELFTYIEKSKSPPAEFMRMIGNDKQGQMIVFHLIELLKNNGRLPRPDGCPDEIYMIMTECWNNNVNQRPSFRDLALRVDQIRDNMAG

kinases [22] = target: kinases (Homo sapiens, UniProt Q96NX5); conditions: CAMK1G FRET-Z-Lyte SP
kinases [23] = target: kinases (Homo sapiens, UniProt P15735); conditions: PHKG2 FRET-Z-Lyte SP; Test Conc(μM):ATP Conc(μM) 1:10
kinases [24] = target: kinases (Homo sapiens, UniProt Q8IW41); conditions: MAPKAPK5 (PRAK) FRET-Z-Lyte SP; Test Conc(μM):ATP Conc(μM) 1:10
kinases (Homo sapiens, UniProt Q8IW41), sequence (Q8IW41 whole entry): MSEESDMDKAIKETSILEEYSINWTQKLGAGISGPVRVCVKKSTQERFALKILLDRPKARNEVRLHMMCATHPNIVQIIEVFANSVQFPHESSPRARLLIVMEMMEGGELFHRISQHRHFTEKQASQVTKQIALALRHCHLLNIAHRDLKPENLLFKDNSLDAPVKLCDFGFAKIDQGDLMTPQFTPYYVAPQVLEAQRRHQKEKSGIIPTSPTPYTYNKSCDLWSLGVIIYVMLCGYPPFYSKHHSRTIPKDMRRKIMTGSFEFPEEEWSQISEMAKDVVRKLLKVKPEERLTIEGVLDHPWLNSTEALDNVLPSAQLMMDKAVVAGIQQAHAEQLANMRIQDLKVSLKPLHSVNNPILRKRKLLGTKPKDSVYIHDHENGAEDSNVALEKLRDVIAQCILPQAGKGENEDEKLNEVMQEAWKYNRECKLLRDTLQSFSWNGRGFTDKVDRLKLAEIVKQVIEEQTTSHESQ

kinases [25] = target: kinases (Homo sapiens, UniProt O43318); conditions: MAP3K7/MAP3K7IP1 Lantha SP; Test Conc(μM) 1
[26] = CDK1/cyclin A2 FRET-Lantha SP, Test Conc(μM) 1
[27] = CDK1/cyclin B FRET-Z-Lyte SP, Test Conc(μM):ATP Conc(μM) 1:25
[28] = bRAF Cascade FRET-Z-Lyte SP, Test Conc(μM):ATP Conc(μM) 1:100
[29] = bRAF FRET-Lantha SP, Test Conc(μM) 1
[30] = MAP2K6 (MKK6) FRET-Lantha SP, Test Conc(μM) 1
[31] = MAP2K6 (MKK6)Cascade Z-Lyte SP, Test Conc(μM):ATP Conc(μM) 1:100
[32] = JAK2 FRET-Z-Lyte SP, Test Conc(μM):ATP Conc(μM) 1:25

kinases (Homo sapiens, UniProt P06493), sequence (P06493 whole entry): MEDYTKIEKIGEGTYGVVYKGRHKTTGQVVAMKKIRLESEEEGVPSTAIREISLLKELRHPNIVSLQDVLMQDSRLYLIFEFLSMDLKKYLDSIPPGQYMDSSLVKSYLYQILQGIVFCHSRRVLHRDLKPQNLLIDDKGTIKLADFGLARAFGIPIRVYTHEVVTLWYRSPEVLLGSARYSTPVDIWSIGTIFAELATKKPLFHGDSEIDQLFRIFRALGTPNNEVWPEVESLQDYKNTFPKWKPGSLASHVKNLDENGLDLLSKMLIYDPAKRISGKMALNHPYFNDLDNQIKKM
kinases (Homo sapiens, UniProt Q15208), sequence (Q15208 whole entry): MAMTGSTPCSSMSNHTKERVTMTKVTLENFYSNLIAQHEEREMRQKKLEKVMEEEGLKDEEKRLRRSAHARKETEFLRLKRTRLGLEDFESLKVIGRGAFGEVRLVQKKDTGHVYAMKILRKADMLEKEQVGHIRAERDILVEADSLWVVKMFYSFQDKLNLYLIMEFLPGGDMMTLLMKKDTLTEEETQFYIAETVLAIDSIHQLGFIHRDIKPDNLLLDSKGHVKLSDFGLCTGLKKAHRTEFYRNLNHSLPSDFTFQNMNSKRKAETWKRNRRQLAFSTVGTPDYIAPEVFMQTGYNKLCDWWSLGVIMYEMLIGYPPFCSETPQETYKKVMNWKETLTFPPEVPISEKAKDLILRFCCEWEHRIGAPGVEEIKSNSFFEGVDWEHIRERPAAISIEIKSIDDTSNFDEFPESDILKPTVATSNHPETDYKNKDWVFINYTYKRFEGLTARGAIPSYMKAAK

Row | Compound | Mean Inhib (%) (kinases [1]; [26]) | Mean Inhib (%) (kinases [1]; [27]) | Mean Inhib (%) (kinases [2]) | Mean Inhib (%) (kinases [3]) | Mean Inhib (%) (kinases [4]) | Mean Inhib (%) (kinases [5]) | Mean Inhib (%) (kinases [6]) | Mean Inhib (%) (kinases [7]) | Mean Inhib (%) (kinases [8]) | Mean Inhib (%) (kinases [9]) | Mean Inhib (%) (kinases [10]) | Mean Inhib (%) (kinases [11]; [28]) | Mean Inhib (%) (kinases [11]; [29]) | Mean Inhib (%) (kinases [12]; [30]) | Mean Inhib (%) (kinases [12]; [31]) | Mean Inhib (%) (kinases [14]) | Mean Inhib (%) (kinases [15]) | Mean Inhib (%) (kinases [16]) | Mean Inhib (%) (kinases [17]) | Mean Inhib (%) (kinases [18]) | also measured
1 | Cc1ccc(NC(=O)c2ccnc(N3CCOCC3)c2)cc1Nc1ccnc(N2CC(C)OC(C)C2)n1 (stereo not shown) [compound 3] | −1.0 | 3.8 | −9.2 | 6.5 | −2.8 | 5.8 | 1.8 | 47.6 | 6.3 | 2.3 | 2.2 | 10.3 | 66.8 | −4.9 | 21.3 | 12.2 | 14.2 | 3.0 | 9.4 | −0.5 | Mean Inhib (%) (kinases [13]; PIP5K1C FRET-Adapta SP): −4.5%; Mean Inhib (%) (kinases [19]): −7.0%; Mean Inhib (%) (kinases [20]): 6.2%; Mean Inhib (%) (kinases [21]; [32]): −7.7%; Mean Inhib (%) (kinases [21]; JAK2 JH1 JH2 FRET-Z-Lyte SP, ATP Conc(μM):Test Conc(μM) 1:25): −0.1%; Mean Inhib (%) (kinases [22]; Test Conc(μM):ATP Conc(μM) 1:300): 5.8%; Mean Inhib (%) (kinases [23]): −2.1%; Mean Inhib (%) (kinases [24]): −1.3%; Mean Inhib (%) (kinases [25]): 3.6%
2 | Cc1cc(Oc2ccnc(Nc3ccc(S(N)(=O)=O)cc3)c2)c(-c2ccccn2)nc1C [compound 65] | 25.4 | 3.2 | 3.1 | 4.3 | 8.8 | 2.8 | −4.1 | 21.2 | 49.5 | 13.5 | −5.0 | 16.7 | 10.4 | 2.3 | −5.7 | 10.0 | 3.6 | −5.0 | 67.3 | 1.6 | PIP5K1C FRET-Adapta SP Mean Mean Inhib (%) (kinases [13]; PIP5K1C): 3.2%; Mean Inhib (%) (kinases [19]): −5.0%; Mean Inhib (%) (kinases [20]): −1.9%; Mean Inhib (%) (kinases [21]; [32]): 4.7%; Mean Inhib (%) (kinases [21]; JAK2 JH1 JH2 FRET-Z-Lyte SP, ATP Conc(μM):Test Conc(μM) 1:50): −3.9%; Mean Inhib (%) (kinases [22]; Test Conc(μM):ATP Conc(μM) 0.25): −3.7%; Mean Inhib (%) (kinases [23]): 4.0%; Mean Inhib (%) (kinases [24]): 1.9%; Mean Inhib (%) (kinases [25]): 8.1%
